In patent publication US11026443B2, “Use of sedoheptulose as a nutritional supplement” (C7 SUGAR GMBH, priority 2013, dated 2021):

Key:
WT hepatocytes = assay: Glucose-induced ECAR in primary hepatocytes; assay type: cell-based, mouse; details: WT hepatocytes in GFS vs GF media, 1 hr carbohydrate starvation, then glucose 1 g/L
Protocol: (§1) Hepatocytes were isolated from male wild-type and CARKL overexpressing mice after the mice were sacrificed by hepatic in situ collagenase perfusion. After perfusion, the liver was quickly removed, minced, and filtered through a cell strainer (Fisher Scientific, Inc) into a 50 ml sterile tube. Hepatocytes in the resulting filtrate were purified from the nonparenchymal cells by centrifugation steps. The isolated hepatocytes were seeded into plates at a concentration of 0.25×10^6/ml in respective DMEM-media containing 10% FBS and indicated carbohydrate mixes at 3 g/L (glucose and fructose (GF), or glucose, fructose and sedoheptulose (GFS)) at least two days before experiments were performed.
The XF-Analyzer (Seahorse Bio.) was used to measure changes in cellular metabolism induced by different carbohydrates. Extracellular acidification rates (ECAR, mpH/min) and oxygen consumption rates (OCR, pmoles/min) were recorded in primary human adipocytes and primary murine hepatocytes according to the manufacture instructions. Briefly, cells were seeded in seahorse cell plates at a density of 10^4 cells per well for adipocytes and 0.5×10^5 cells per well for hepatocytes. […] Changes induced by the different carbohydrate sources were expressed as relative change in % to illustrate the effect of each carbon source.

[1] = target: T1, Glucose-6-phosphate dehydrogenase (G6PD) (Mus musculus, UniProt Q00612); assay: Glucose-6-phosphate dehydrogenase activity assay (enzyme histochemistry) in hepatocytes; assay type: cell-based; details: WT cells incubated in cell culture media with sedoheptulose; data not shown
T1 construct: Hepatocytes were isolated from male wild-type and CARKL overexpressing mice; endogenous in cells; host or cells: primary mouse hepatocytes (WT and CARKL-transgenic)
T1 sequence (Q00612 whole entry): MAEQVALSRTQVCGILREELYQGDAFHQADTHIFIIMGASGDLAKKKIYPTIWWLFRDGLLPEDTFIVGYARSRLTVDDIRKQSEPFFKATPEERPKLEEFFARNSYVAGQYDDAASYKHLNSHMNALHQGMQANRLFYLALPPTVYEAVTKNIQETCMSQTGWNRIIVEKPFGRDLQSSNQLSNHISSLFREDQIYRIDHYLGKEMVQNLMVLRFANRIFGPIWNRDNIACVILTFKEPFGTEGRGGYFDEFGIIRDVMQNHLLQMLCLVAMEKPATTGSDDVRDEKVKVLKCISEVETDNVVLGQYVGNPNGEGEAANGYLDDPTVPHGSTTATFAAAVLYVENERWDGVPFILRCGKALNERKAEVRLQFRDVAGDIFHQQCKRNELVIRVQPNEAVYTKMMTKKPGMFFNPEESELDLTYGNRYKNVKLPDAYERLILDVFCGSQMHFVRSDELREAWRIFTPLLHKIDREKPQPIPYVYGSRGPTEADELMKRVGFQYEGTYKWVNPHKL
Protocol: as §1
Cells were grown on polystyrene vessel tissue culture treated glass slides, snap frozen in liquid nitrogen and kept at −80° C. The enzyme histochemical procedure was based on the tetrazolium salt method as described by Van Noorden and Frederiks. […] The medium was freshly prepared immediately before incubation. Control reactions additionally contained 40 mM glucosamine-6-phosphate. Cells were incubated at room temperature for 15 minutes under continuous mixing by orbital shaker. After incubation, cells were washed 3×5 minutes in 60° C. phosphate buffered saline, dried, and mounted in glycerol gelatin, and photographed within one day at ×10 magnification.

[2] = system: bone marrow derived macrophages; assay: Cytokine secretion (ELISA) by bone marrow derived macrophages, basal and LPS-induced; assay type: cell-based, mouse; details: ELISA of supernatant over two days, GFS vs GF media
Protocol: (§2) Mouse bones were isolated from male wild-type and CARKL overexpressing mice and bone marrow wash flushed, washed and cleared from red blood cells by lysis, and subsequently differentiated in DMEM containing 25 mM glucose and 20 ng/ml M-CSF. After 4 days, cells for osteoclast differentiation were harvested and seeded in corning osteo assay plates with differentiation media (see below), and for primary bone marrow derived macrophages (BMDM) the medium was renewed and further supplemented with M-SCF for two days. Differentiated BMDM were then seeded in respective DMEM-media containing 10% FBS and indicated carbohydrate mixes at 3 g/L (glucose and fructose (GF), or glucose, fructose and sedoheptulose (GFS)) at least two days before experiments were performed.

[3] = system: primary murine hepatocytes; assay: IL-6 mRNA expression in primary murine hepatocytes in GF or GFS media; assay type: cell-based, mouse; details: hepatocytes pre-cultured two days with sedoheptulose (GFS) vs GF
Protocol: as §1
(§3) Briefly, total RNA was extracted and reverse-transcribed using commercial kits (QIAGEN, Applied Biosystems). Quantitative real-time PCRs were performed on an AbiPRISM 7900HT real-time cycler using iTaq SYBR Green Supermix with ROX (BioRad) to measure CARKL, adiponectin, UCP-1, TNFa, IL-6, MCP-1, and beta-actin expression as previously described (Haschemi et al., Cell Metab. 15 (2012), 813-826). Expression of target gene was normalized to beta-actin expression. Relative expression of target gene was calculated by the delta-delta CT method.

[4] = system: primary bone marrow derived macrophages; assay: Basal cytokine mRNA expression in primary bone marrow derived macrophages in GF or GFS media; assay type: cell-based, mouse; details: pre-cultured two days in GFS vs GF media
Protocol: as §2, §3

[5] = Diet-derived sedoheptulose uptake in humans (serum GC-MS before/after carrot meal); assay type: in vivo, human; details: two hours after meal of mainly steamed carrots (~700 g) vs overnight fasted, n=4
Source text: Fresh carrots with an Austrian “organic-certificate” were sliced into small pieces and snap-frozen in liquid nitrogen. The same procedure was applied to leaves freshly harvested from indoor-grown Sedum Spectabile plants. Three samples of each tissue were pooled and homogenized to powder by glass-beads. The carbohydrate rich fractions of the samples were isolated by 20% H2O and 80% MeOH extraction solution spiked with 13C standards and processed for standard gas-chromatography coupled to mass spectrometry (GC-MS). Glucose and sedoheptulose were identified by their individual masses and their relative amount was derived from the peak area of each individual analyte normalized to 13C content. Glucose and sedoheptulose were also measured in equal volumes of serum from overnight fasted or carrot fed individuals. The carrots were steamed and some olive-oil, salt and pepper were used for flavour. Two hours before and two hours after the carrot containing meal human serum was prepared in VACUETTE® Z Serum Sep tubes from blood. Serum samples were processed as previously described and also analyzed by GC-MS as detailed above and in Ruiz-Matute A I et al., Chromatogr B Analyt Technol Biomed Life Sci. (2011) May 15 879(17-18).

osteoclasts = assay: In vitro bone resorption assay (osteoclast pit formation); assay type: cell-based, mouse
Protocol: as §2, with “performed. Osteoclast precursor cells (bone marrow cells treated with 20 ng/ml M-CSF for 4 days) were plated in 24-well Corning Osteo Assay plate in the presence of 10 ng/ml M-CSF and 100 ng/ml RANKL in alpha-MEM medium containing 10% FBS and 3 g/L either glucose and fructose (GF), or glucose, fructose, and sedoheptulose (GFS). The Medium was renewed every third day. […] Each well was entirely photographed by TissueFax with an ×20 objective and all visible resorption pits were counted and analysed blinded.” for “performed.”

primary human adipocytes [6] = assay: mRNA expression (RT-PCR) in primary human adipocytes differentiated in GF or GFS media; assay type: cell-based; details: GFS (1 g/L each sugar) vs GF (1.5 g/L each), eight days differentiation
Protocol: Stromal vascular fraction cells (SVFs) from subcutaneous white adipose tissue of a patient undergoing abdominal surgery were isolated as described before (Lindroos et al, Cell Metab. (2013), Jul. 2; 18(1):62-74.). Briefly, adipose tissue was digested with Collagenase II (Worthington) and filtered. SVFs were separated from mature adipocytes by centrifugation, followed by the lysis of erythrocytes in the SVF-fraction (Buffer EL, Qiagen). The purified SVFs were cultured in DMEM/F12, 10% FBS (Gibco, Life Technologies). […] Two days after confluence (day 0), differentiation was induced by adding 1 μM dexamethasone, 1.74 μM insulin, 5 μM troglitazone, […], 17 μM pantothenic acid and 33 μM biotin. After two days, IBMX and dexamethasone were omitted, while insulin and troglitazone were removed on day 4. 50% of the medium was replaced on day 6. Two days later, the cells were harvested for RNA isolation (RNeasy mini kit, Qiagen). Briefly, total RNA was extracted and reverse-transcribed using commercial kits (QIAGEN, Applied Biosystems). Quantitative real-time PCRs were performed on an […] real-time cycler using iTaq SYBR Green Supermix with ROX (BioRad) to measure CARKL, adiponectin, UCP-1, TNFa, IL-6, MCP-1, and beta-actin expression as previously described ([…] et al., Cell Metab. 15 (2012), 813-826). […] Relative expression of target gene was calculated by the delta-delta CT method.

mature murine adipocytes = assay: Cytokine mRNA expression in mature murine adipocytes (ceiling culture) in GF or GFS media; assay type: cell-based, mouse; details: three days in sedoheptulose containing media vs glucose and fructose alone
Protocol: Anterior and posterior subcutaneous adipose tissue and epididymal white adipose tissue was isolated from transgenic CARKL-mice and wild-type littermate controls. Adipose tissue was digested as described above for the human sample. After centrifugation, the layer of floating mature adipocytes was removed and re-centrifuged at 100 rcf for 10 minutes. 150 μL of packed adipocytes were cultured under a floating coverslip in six-well plates, in DMEM/F12, 15% calf serum (PAA). 24 hours after isolation, the wells were washed twice with PBS and the medium was exchanged to DMEM/F12 with a total carbohydrate load of 3 g/L, containing 1.5 g/L glucose and fructose, or 1 g/L each of glucose, fructose and sedoheptulose, respectively. Three days later, the cells were harvested for RNA isolation using TRIreagent (Sigma).
as §3

primary human adipocytes [7] = assay: Oxygen consumption rate and extracellular acidification rate (XF-Analyzer) in primary human adipocytes; assay type: cell-based; details: human adipocytes differentiated and cultured in sedoheptulose containing media vs controls
Protocol: Stromal vascular fraction cells (SVFs) from subcutaneous white adipose tissue of a patient undergoing abdominal surgery were isolated as described before (Lindroos et al, Cell Metab. (2013), Jul. 2; 18(1):62-74.). Briefly, adipose tissue was digested with Collagenase II (Worthington) and filtered. SVFs were separated from mature adipocytes by centrifugation, followed by the lysis of erythrocytes in the SVF-fraction (Buffer EL, Qiagen). The purified SVFs were cultured in DMEM/F12, 10% FBS (Gibco, Life Technologies). As soon as the cells reached confluence, they were washed with DMEM/F12 w/o glucose (Biowest) and the medium was replaced by DMEM/F12 with a total carbohydrate load of 3 g/L, containing 1.5 g/L glucose and fructose or 1 g/L each of glucose, fructose, and sedoheptulose, respectively. […]
The XF-Analyzer (Seahorse Bio.) was used to measure changes in cellular metabolism induced by different carbohydrates. Extracellular acidification rates (ECAR, mpH/min) and oxygen consumption rates (OCR, pmoles/min) were recorded in primary human adipocytes and primary murine hepatocytes according to the manufacture instructions. […] Changes induced by the different carbohydrate sources were expressed as relative change in % to illustrate the effect of each carbon source.

[8] = system: sedoheptulose kinase (CARKL); assay: Sedoheptulose kinase assay (ADP Quest, ADP formation); assay type: biochemical; details: constant amount of recombinant CARKL, constant ATP 150 μM, increased doses of sedoheptulose
Source text: The ADP Quest Assay (DiscoveRx) was used to indirectly measure […] formation by ADP accumulation over time according to the manufacture instructions. Recombinant sedoheptulose kinase was previously produced in E. coli and purified by affinity purification ([…] et al., Cell Metab. 15 (2012), 813-826).

For `O=C(CO)[C@@H](O)[C@H](O)[C@H](O)[C@H](O)CO` [sedoheptulose, Sedoheptulose], the “glucose-induced ECAR” value (WT hepatocytes) was “reduced”, the “G6PD activity distribution (re-localization of G6PD and reduced activity in the inner space of the cells, as in CARKL overexpressing cells)” value [1] was “same phenotype was achieved” and the “basal IL-6 secretion” value [2] was “blocked”. For the same compound, the “basal TNFa secretion” value [2] was “blocked”, the IL-6 expression [3] was “less” and the “basal IL-6 mRNA expression” value [4] was “blocked”. The “basal TNFa mRNA expression” value [4] was “blocked”, the “increase in sedoheptulose serum levels” value [5] was “approximately two-fold” and the “pit formation by osteoclasts” value (osteoclasts; 7 days in GFS vs GF media, Corning Osteo Assay plates) was “reduced”. For the same compound, the larger resorption-pits (osteoclasts; WT osteoclasts cultured in GF or GFS media) was “found only in the absence of sedoheptulose”, the “sedoheptulose kinase CARKL mRNA expression” value (primary human adipocytes [6]) was “increase” and the “IL-6 mRNA” value (mature murine adipocytes) was “less”. For the same compound, the “TNFa mRNA” value (mature murine adipocytes) was “less”, the “cellular oxygen consumption rate (OCR)” value (primary human adipocytes [7]) was “increased” and the “extracellular acidification rate (ECAR)” value (primary human adipocytes [7]) was “comparable”. For the same compound, the “sedoheptulose turnover rate (ADP formation)” value [8] was “enhanced”.
